Columns and labels:
[1] = molecular target: MMP-2 (Homo sapiens (Human), UniProt P08253); settings: read-out: MMP-2 IC50
[2] = molecular target: MMP-9 (Homo sapiens (Human), UniProt P14780); assay: Assay for inhibition of MMP (fluorescence), MMP-9; settings: read-out: MMP-9 IC50
MMP-9, sequence (P14780 107-707 limits assumed): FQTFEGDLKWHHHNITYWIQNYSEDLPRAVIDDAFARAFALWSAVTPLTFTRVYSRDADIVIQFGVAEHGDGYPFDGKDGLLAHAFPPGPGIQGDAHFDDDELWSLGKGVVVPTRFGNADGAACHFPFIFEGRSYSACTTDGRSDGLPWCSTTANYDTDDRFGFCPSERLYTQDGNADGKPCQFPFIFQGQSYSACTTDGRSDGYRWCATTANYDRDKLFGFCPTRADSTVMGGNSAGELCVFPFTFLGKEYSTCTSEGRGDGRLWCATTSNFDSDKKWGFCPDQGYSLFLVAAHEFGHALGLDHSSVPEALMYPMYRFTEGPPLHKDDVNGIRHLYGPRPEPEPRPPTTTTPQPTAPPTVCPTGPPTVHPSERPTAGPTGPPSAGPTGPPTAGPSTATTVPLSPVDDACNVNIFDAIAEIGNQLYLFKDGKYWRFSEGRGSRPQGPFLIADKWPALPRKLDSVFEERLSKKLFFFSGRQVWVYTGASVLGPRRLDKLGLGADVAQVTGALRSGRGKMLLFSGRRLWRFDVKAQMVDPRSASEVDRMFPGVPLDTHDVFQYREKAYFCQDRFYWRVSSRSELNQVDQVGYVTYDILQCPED

MMP-2, sequence (P08253 110-660 limits assumed): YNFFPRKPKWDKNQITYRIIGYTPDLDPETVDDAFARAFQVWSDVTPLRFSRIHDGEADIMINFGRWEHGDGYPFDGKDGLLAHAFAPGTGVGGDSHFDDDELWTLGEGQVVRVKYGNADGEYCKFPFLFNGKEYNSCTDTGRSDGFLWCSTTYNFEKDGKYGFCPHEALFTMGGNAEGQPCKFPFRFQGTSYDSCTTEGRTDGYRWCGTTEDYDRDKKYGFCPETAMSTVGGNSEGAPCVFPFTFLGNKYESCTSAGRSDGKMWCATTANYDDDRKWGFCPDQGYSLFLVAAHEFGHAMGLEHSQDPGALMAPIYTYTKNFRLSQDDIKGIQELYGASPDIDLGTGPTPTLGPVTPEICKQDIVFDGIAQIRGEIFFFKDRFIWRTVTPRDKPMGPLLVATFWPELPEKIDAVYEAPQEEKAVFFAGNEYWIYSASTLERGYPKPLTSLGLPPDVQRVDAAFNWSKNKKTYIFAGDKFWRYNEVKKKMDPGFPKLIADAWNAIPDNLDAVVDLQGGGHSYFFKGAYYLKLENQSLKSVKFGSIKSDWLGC

## COc1ccc(S(=O)(=O)N(CC(=O)NO)CC(C)C)cc1 [NNGH, N-Isobutyl-N-(4-methoxyphenylsulfonyl)glycyl hydroxamic acid]
[1]
  IC50: 2.7 nM
[2]
  IC50: 5 nM

Reference: patent US20240050571A1, “CARBORANE HYDROXAMIC ACID MATRIX METALLOPROTEINASE INHIBITORS AND AGENTS FOR BORON NEUTRON CAPTURE THERAPY” (LOYOLA UNIVERSITY OF CHICAGO, priority 2018, published 2024)
